According to PubChem BioAssay AID624167 (Sanford-Burnham Center for Chemical Genomics, 2012):
Activity calls are given as the source filed them.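 Rule for the calls: active = mean IC50 for reducing PEG3 promoter reporter signal at or below a set limit, with IC50 above the limit in both counter screens; inactive = the rest, including counter screen hits.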

Key:
PEG-3 [1] = assay: Peg3 promoter luciferase inhibitors, potency, dose response, cell-based, HeLa, CREF/GAPDH counter-screen panel (AID 624167); settings: HeLa PEG-Prom luciferase reporter, overnight, CREF/GAPDH counter-screens
PEG-3 [2] = molecular target: PEG-3 (UniProt Q6IN02); assay: as above; settings: HeLa PEG-Prom luciferase reporter, overnight, CREF/GAPDH counter-screens, mean of runs
PEG-3 (UniProt Q6IN02), sequence (Q6IN02 whole entry, looked up): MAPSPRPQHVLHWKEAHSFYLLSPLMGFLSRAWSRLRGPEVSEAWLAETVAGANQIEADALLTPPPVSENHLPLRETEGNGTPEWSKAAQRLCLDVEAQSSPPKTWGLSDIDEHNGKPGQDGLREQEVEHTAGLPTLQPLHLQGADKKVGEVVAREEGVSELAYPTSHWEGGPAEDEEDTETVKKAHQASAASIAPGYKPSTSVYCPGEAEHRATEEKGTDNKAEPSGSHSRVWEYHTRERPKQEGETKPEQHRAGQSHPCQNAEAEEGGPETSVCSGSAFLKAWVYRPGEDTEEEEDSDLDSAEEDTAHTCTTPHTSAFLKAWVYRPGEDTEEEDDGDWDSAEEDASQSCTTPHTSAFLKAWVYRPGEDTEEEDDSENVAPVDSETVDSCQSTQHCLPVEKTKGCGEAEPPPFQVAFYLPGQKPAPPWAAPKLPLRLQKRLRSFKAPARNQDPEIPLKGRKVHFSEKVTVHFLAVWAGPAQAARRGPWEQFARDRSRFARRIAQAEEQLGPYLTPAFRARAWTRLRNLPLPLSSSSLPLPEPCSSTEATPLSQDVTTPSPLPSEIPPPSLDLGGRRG

[3] = run 1, dose range 1, individual replicate IC50 per panel
[4] = run 2, dose range 1, individual replicate IC50 per panel

Compound | IC50 (PEG-3 [1]; [3]) [µM] | IC50 (PEG-3 [1]; [4]) [µM] | IC50 (PEG-3 [2])
CSc1ccc2c(c1)C(N1CCN(C)CC1)Cc1ccccc1S2 (stereo not drawn) | 16.9 | 6.17 | 11.6 µM
CCn1cc(CN2CCC(C(=O)Nc3cccc(-c4cccc(Cl)c4)c3)CC2)c(C)n1 | 17.7 | 11.2 | 14.5 µM
CN(CCOc1ccc(Cl)cc1)C(=O)c1cc(-c2ccco2)nc2ccccc12 | 15.9 | 14.4 | 15.1 µM
Cc1ccccc1NC(=O)Nc1nc(C(N)C2CCCCC2)cs1 (stereo not drawn) | 21.1 | 26.5 | inactive
CN(C)CCNc1ccc2ncn3c4ccc(O)cc4c(=O)c1c23 | 54 | < 0.2 | inactive
Cc1nc(-c2ccc(F)cc2)c(CC(=O)N(C)CC(=O)Nc2ccc(Cl)c(C(F)(F)F)c2)s1 | 26 | 33.8 | inactive
CC1=CC(C)[C@H](/C=N/n2c(=O)[nH]c3c([nH]c4ccc(Br)cc43)c2=O)C(C)C1 (stereo partly drawn) | > 100 | 5.42 | inactive
Cc1ccccc1NC(=O)C(=Cc1ccc(C(=O)O)cc1)C(=O)Nc1ccccc1C | 37.3 | 74.4 | inactive
O=C(CCCN1C(=O)/C(=C/c2ccccc2Cl)SC1=S)NNC(=O)c1ccccc1Cl | 26.4 | 22 | inactive
Cc1ccc(NCCN(C)C)c2c(=O)c3cc(O)ccc3sc12 | 19.1 | 8.02 | 13.6 µM
CN(C)c1ccc(C(C(=O)NCc2ccccc2)N(Cc2ccco2)C(=O)c2snc(C(N)=O)c2N)cc1 (stereo not drawn) | > 100 | > 100 | > 100 µM (inactive)
CCn1cc(C(=O)NCCC(C)C)c(=O)c2cc(F)c(N3CCN(C(=O)c4ccco4)CC3)cc21 | 37.8 | > 100 | inactive
Cc1ccc(C(=O)NCCc2cccs2)cc1 | 3.98 | 20 | 12 µM
O=C1OCCC1Sc1nnc(-c2ccc(Cl)cc2Cl)o1 (stereo not drawn) | 6.82 | 35.5 | inactive
COc1ccc(/C=C/C(=O)c2ccc3c(c2)OCCO3)cc1[N+](=O)[O-] | 17.2 | 16.7 | 17 µM
COc1ccc(-c2cc(C(=O)N(C)Cc3ccccc3F)c3ccccc3n2)cc1OC | 23.9 | 24.1 | inactive
O=C(NC1CCCCC1)Sc1ccc(Cl)cc1 | 30.7 | 19.3 | inactive
N#Cc1ccc(Cn2cc(C=O)c3ccccc32)cc1 | 31.6 | 24.6 | inactive
COc1ccccc1CNC(=O)c1c(N)n(CCCN2CCOCC2)c2nc3ccccc3nc12 | 18.3 | 9.79 | 14.1 µM
Cc1cccc(CN2C(=O)/C(=C\c3ccc(C(=O)NCCN4CCOCC4)cc3)Sc3ccccc32)c1 | 18.2 | 22.1 | inactive
CCN1CCN(c2nc(Nc3cc(OC)ccc3OC)nc(Nc3cc(OC)ccc3OC)n2)CC1 | 17 | 18.1 | 17.5 µM
Cc1noc(-c2ccc(Cl)cc2)c1C(=O)O/N=C(\N)c1ccc(C(C)(C)C)cc1 | 17.3 | 9.17 | 13.2 µM
CC(C)n1nc(C(=O)Oc2cc(Cl)ccc2Cl)c2ccccc2c1=O | 65.8 | > 100 | inactive
COCOCCn1cc(CN2CCS(=O)(=O)N(Cc3ccc(-c4ccc(Cl)c(Cl)c4)cc3)C(C(C)C)C2=O)nn1 (stereo not drawn) | 34.9 | 18 | inactive
Cc1[nH]c2ccc(OC(F)(F)F)cc2c1CCNCc1cccc([N+](=O)[O-])c1 | 25.1 | > 100 | inactive
CC(=O)Nc1ccc(S(=O)(=O)N(Cc2cccnc2)Cc2cc3ccccc3[nH]c2=O)cc1 | > 100 | > 100 | > 100 µM (inactive)
